Laboratory results: patent publication US10710978B2, “STK4 inhibitors for treatment of hematologic malignancies” (Dana-Farber Cancer Institute, Inc., priority 2015, dated 2020)
Where two headings read alike, the source gives them in different places.

How the values were obtained:
Assay in all cases: KiNativ assay
Type in all cases: binding
MST1, MST2 = conditions: H929 live cell; for % inhibition: 10 μM, range class
Experimental: (§1) Biochemical IC50s of the compounds of the present disclosure against various kinases were measured in a KiNativ assay. Compounds were screened in duplicate at 10 μM in H929 live cell. IC50 was measured via Mass spectroscopy (MS).

CDK5 = CDK5 (Homo sapiens (Human), UniProt Q00535); conditions: H929 live cell
Experimental: as §1

PIK3CG = PIK3CG (Homo sapiens (Human), UniProt P48736); conditions: H929 live cell
Experimental: as §1

PI4KA, PI4KAP2 = conditions: H929 live cell; for % inhibition: 10 μM, range class
Experimental: as §1

PFTAIRE1 = PFTAIRE1 (Homo sapiens (Human), UniProt O94921); conditions: H929 live cell
Experimental: as §1

AKT1 = AKT1 (Homo sapiens (Human), UniProt P31749); conditions: H929 live cell
Experimental: as §1

MAP2K5 = MAP2K5 (Homo sapiens (Human), UniProt Q13163); conditions: H929 live cell
Experimental: as §1

PRP4 = PRP4 (Homo sapiens (Human), UniProt Q13523); conditions: H929 live cell
Experimental: as §1

RSK1 domain2 = RSK1 domain2 (Homo sapiens (Human), UniProt Q15418); conditions: H929 live cell
Experimental: as §1

NDR1 = NDR1 (Homo sapiens (Human), UniProt Q15208); conditions: H929 live cell
Experimental: as §1

CaMK2d = CaMK2d (Homo sapiens (Human), UniProt Q13557); conditions: H929 live cell
Experimental: as §1

MARK4 = MARK4 (Homo sapiens (Human), UniProt Q96L34); conditions: H929 live cell
Experimental: as §1

FRAP = FRAP (Homo sapiens (Human), UniProt P42345); conditions: H929 live cell
Experimental: as §1

MST3 = MST3 (Homo sapiens (Human), UniProt Q9Y6E0); conditions: H929 live cell
Experimental: as §1

MST2 = MST2 (Homo sapiens (Human), UniProt Q13188); conditions: H929 live cell
Experimental: as §1

CDC2 = CDC2 (Homo sapiens (Human), UniProt P06493); conditions: H929 live cell
Experimental: as §1

STLK3 = STLK3 (Homo sapiens (Human), UniProt Q9UEW8); conditions: H929 live cell
Experimental: as §1

MST4, YSK1 = conditions: H929 live cell; for % inhibition: 10 μM, range class
Experimental: as §1

CK1g2 = CK1g2 (Homo sapiens (Human), UniProt P78368); conditions: H929 live cell
Experimental: as §1

MSK2 domain1 = MSK2 domain1 (Homo sapiens (Human), UniProt O75676); conditions: H929 live cell
Experimental: as §1

SRPK1 = SRPK1 (Homo sapiens (Human), UniProt Q96SB4); conditions: H929 live cell
Experimental: as §1

MAP2K7 = MAP2K7 (Homo sapiens (Human), UniProt O14733); conditions: H929 live cell
Experimental: as §1

MAP2K1 = MAP2K1 (Homo sapiens (Human), UniProt Q02750); conditions: H929 live cell
Experimental: as §1

DGKH = DGKH (Homo sapiens (Human), UniProt Q86XP1); conditions: H929 live cell
Experimental: as §1

Erk2 = Erk2 (Homo sapiens (Human), UniProt P28482); conditions: H929 live cell
Experimental: as §1

GSK3B = GSK3B (Homo sapiens (Human), UniProt P49841); conditions: H929 live cell
Experimental: as §1

ACK = ACK (Homo sapiens (Human), UniProt Q07912); conditions: H929 live cell
Experimental: as §1

NEK6, NEK7 = conditions: H929 live cell; for % inhibition: 10 μM, range class
Experimental: as §1

JNK1, JNK2, JNK3 = conditions: H929 live cell; for % inhibition: 10 μM, range class
Experimental: as §1

PEK = PEK (Homo sapiens (Human), UniProt Q9NZJ5); conditions: H929 live cell
Experimental: as §1

GCN2 domain2 = GCN2 domain2 (Homo sapiens (Human), UniProt Q9P2K8); conditions: H929 live cell
Experimental: as §1

PIK3C3 = PIK3C3 (Homo sapiens (Human), UniProt Q8NEB9); conditions: H929 live cell
Experimental: as §1

eEF2K = eEF2K (Homo sapiens (Human), UniProt O00418); conditions: H929 live cell
Experimental: as §1

[1] = range class, read-out: % inhibition

PEK, sequence (Q9NZJ5 30-1116): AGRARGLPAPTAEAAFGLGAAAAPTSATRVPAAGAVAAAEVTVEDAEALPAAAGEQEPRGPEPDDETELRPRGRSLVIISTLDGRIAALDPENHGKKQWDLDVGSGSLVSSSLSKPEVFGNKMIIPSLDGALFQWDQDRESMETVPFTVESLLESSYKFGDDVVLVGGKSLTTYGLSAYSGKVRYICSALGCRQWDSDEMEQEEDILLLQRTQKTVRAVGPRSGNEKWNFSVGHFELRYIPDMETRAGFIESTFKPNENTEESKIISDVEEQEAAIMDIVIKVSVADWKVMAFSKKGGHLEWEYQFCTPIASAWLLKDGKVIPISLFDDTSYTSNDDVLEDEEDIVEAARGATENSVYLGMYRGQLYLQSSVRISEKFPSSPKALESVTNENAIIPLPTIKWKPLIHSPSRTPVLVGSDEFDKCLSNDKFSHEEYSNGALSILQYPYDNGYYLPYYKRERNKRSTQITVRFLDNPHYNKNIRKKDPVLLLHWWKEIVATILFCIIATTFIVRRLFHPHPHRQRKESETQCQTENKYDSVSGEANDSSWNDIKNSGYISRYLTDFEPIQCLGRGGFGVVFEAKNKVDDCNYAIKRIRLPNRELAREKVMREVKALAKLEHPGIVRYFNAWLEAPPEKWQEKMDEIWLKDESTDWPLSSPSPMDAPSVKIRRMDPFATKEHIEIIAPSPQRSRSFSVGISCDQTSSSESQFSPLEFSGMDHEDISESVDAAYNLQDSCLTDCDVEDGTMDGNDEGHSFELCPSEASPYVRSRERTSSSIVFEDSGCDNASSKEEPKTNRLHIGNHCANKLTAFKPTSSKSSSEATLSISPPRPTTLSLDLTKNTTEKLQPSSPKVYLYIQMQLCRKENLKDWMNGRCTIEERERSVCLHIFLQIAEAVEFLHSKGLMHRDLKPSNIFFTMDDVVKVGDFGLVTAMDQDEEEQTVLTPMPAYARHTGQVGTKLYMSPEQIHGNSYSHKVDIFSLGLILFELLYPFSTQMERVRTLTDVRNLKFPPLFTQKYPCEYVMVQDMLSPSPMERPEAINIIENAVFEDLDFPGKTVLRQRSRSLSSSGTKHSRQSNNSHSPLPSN
MSK2 domain1, sequence (O75676 whole entry, the tested form may be a part): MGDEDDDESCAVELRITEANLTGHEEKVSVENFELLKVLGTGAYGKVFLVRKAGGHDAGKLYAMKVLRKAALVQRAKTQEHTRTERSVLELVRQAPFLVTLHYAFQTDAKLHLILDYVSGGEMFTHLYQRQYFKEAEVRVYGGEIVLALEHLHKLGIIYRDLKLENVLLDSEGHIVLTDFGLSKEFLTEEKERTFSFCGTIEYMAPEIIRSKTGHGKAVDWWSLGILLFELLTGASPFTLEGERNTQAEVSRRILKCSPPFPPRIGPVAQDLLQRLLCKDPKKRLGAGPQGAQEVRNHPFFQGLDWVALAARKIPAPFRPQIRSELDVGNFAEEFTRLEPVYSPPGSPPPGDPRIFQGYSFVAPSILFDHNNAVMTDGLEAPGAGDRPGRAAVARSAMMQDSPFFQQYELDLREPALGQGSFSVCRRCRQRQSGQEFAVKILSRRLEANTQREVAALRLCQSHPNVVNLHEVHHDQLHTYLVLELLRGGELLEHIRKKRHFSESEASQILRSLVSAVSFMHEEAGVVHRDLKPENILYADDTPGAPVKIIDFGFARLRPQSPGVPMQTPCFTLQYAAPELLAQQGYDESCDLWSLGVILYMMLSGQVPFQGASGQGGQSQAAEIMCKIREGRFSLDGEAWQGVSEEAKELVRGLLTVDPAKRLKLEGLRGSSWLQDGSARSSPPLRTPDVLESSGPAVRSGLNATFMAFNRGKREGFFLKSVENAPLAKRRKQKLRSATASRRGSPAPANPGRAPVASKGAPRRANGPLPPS
MST3, sequence (Q9Y6E0 whole entry): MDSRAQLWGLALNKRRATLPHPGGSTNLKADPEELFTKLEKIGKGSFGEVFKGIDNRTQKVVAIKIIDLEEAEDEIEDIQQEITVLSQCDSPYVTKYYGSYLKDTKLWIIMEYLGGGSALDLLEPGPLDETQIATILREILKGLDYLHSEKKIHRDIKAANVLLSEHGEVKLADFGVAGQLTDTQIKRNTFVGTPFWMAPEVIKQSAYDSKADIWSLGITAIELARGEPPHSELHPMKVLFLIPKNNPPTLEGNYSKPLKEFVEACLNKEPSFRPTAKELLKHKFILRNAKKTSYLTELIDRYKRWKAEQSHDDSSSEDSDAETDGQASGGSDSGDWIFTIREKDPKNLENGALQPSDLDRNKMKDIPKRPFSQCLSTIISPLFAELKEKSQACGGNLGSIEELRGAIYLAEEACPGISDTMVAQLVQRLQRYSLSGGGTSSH
Erk2, sequence (P28482 whole entry): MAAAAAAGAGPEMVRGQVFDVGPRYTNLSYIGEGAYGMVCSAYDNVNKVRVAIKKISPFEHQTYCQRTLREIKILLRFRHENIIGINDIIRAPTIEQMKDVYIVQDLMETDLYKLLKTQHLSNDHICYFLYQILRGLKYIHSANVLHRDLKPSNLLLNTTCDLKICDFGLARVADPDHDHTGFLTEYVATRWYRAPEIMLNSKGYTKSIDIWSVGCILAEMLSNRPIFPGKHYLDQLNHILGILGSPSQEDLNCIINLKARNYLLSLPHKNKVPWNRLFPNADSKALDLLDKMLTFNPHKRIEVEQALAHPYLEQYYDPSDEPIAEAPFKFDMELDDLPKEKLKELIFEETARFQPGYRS
PIK3CG, sequence (P48736 whole entry): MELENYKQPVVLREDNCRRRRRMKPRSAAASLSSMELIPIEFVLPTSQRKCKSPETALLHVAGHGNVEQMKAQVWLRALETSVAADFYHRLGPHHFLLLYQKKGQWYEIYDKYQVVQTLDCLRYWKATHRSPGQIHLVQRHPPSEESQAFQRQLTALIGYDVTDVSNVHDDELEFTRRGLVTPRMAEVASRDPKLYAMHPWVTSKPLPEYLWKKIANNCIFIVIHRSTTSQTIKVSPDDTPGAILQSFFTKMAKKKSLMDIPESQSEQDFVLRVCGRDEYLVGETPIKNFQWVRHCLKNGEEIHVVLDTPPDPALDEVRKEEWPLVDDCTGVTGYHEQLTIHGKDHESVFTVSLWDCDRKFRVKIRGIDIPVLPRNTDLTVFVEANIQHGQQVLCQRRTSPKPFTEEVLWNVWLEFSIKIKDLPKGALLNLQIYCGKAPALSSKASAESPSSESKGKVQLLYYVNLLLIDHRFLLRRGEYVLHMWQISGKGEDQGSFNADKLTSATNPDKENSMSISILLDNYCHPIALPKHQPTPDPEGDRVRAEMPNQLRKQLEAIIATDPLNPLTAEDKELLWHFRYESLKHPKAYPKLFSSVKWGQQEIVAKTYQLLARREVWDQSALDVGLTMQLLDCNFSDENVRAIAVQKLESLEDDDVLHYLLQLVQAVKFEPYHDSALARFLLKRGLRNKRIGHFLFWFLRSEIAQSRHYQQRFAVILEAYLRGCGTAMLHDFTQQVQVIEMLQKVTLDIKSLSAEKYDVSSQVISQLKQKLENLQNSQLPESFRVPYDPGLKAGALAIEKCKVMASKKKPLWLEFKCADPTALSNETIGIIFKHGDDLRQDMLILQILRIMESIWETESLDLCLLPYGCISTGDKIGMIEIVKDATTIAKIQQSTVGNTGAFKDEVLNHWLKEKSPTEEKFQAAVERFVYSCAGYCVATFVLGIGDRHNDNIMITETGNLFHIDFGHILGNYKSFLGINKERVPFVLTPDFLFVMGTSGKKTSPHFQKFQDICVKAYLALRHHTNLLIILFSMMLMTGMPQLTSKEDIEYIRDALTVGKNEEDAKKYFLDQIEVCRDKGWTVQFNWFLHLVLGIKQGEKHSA
MAP2K5, sequence (Q13163 whole entry): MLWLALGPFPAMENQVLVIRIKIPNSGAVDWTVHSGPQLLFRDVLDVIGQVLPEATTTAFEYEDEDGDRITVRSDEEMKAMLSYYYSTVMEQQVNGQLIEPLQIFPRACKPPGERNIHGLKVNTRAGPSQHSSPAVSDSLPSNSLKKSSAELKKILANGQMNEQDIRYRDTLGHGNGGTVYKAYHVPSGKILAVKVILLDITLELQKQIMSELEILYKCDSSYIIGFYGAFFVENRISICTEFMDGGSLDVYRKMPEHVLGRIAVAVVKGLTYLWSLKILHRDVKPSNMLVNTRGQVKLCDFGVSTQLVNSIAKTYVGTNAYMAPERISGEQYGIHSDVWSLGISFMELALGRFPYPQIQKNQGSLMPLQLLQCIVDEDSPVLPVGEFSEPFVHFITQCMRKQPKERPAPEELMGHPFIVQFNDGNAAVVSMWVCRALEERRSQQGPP
CK1g2, sequence (P78368 whole entry): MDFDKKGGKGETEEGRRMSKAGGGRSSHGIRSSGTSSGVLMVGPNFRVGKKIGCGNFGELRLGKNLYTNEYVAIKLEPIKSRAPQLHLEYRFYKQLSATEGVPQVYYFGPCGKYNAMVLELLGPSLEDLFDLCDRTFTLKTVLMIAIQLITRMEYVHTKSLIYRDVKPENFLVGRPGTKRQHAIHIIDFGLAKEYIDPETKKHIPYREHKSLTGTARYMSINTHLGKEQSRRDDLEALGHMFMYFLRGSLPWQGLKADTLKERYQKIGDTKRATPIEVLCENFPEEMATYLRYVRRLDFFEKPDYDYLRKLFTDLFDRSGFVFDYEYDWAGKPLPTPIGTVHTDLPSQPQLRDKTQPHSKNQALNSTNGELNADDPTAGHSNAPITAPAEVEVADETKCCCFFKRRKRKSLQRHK
CDK5, sequence (Q00535 whole entry): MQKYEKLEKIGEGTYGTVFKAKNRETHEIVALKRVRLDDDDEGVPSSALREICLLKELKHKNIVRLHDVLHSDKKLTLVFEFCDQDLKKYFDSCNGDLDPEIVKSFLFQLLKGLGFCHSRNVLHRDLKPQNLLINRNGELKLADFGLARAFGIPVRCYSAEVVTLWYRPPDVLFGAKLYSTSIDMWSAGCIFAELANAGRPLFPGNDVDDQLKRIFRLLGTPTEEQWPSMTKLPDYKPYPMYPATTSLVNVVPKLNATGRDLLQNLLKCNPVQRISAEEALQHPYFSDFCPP

Nc1ncc(-c2ccc(NS(=O)(=O)C3CC3)cc2F)cc1-c1ccc2c(c1)CCNC2=O [Compound I-51, N-(4-(6-amino-5-(1-oxo-1,2,3,4-tetrahydroisoquinolin-6-yl)pyridin-3-yl)-3-fluorophenyl) cyclopropanesulfonamide]
% inhibition (MST1, MST2): >90%
inhibition (10 μM) (MST1, MST2): 98.4%
inhibition at 10 µM (CDK5; [1]): 35 to 40%
inhibition at 10 µM (CDK5; read-out: inhibition (10 μM)): 37.2%
inhibition at 10 µM (PIK3CG; [1]): 0%
inhibition at 10 µM (PIK3CG; read-out: inhibition (10 μM)): -146%
% inhibition (PI4KA, PI4KAP2): 0.0%
inhibition (10 μM) (PI4KA, PI4KAP2): 0.1%
inhibition at 10 µM (PFTAIRE1; [1]): 0%
inhibition at 10 µM (PFTAIRE1; read-out: inhibition (10 μM)): 8.8%
inhibition at 10 µM (AKT1; [1]): 0%
inhibition at 10 µM (AKT1; read-out: inhibition (10 μM)): -15.2%
inhibition at 10 µM (MAP2K5; [1]): 0%
inhibition at 10 µM (MAP2K5; read-out: inhibition (10 μM)): -4%
inhibition at 10 µM (PRP4; [1]): 0%
inhibition at 10 µM (PRP4; read-out: inhibition (10 μM)): 10.2%
inhibition at 10 µM (RSK1 domain2; [1]): 0%
inhibition at 10 µM (RSK1 domain2; read-out: inhibition (10 μM)): 11%
inhibition at 10 µM (NDR1; [1]): 0%
inhibition at 10 µM (NDR1; read-out: inhibition (10 μM)): 16.8%
inhibition at 10 µM (CaMK2d; [1]): 0%
inhibition at 10 µM (CaMK2d; read-out: inhibition (10 μM)): 2.3%
inhibition at 10 µM (MARK4; [1]): 0%
inhibition at 10 µM (MARK4; read-out: inhibition (10 μM)): 22.2%
inhibition at 10 µM (FRAP; [1]): 0%
inhibition at 10 µM (FRAP; read-out: inhibition (10 μM)): 25.1%
inhibition at 10 µM (MST3; [1]): 50 to 75%
inhibition at 10 µM (MST3; read-out: inhibition (10 μM)): 53.3%
inhibition at 10 µM (MST2; [1]): > 90%
inhibition at 10 µM (MST2; read-out: inhibition (10 μM)): 95.3%
inhibition at 10 µM (CDC2; [1]): 0%
inhibition at 10 µM (CDC2; read-out: inhibition (10 μM)): 18.5%
inhibition at 10 µM (STLK3; [1]): 0%
inhibition at 10 µM (STLK3; read-out: inhibition (10 μM)): -5%
% inhibition (MST4, YSK1): 50-75%
inhibition (10 μM) (MST4, YSK1): 68.1%
inhibition at 10 µM (CK1g2; [1]): 75 to 90%
inhibition at 10 µM (CK1g2; read-out: inhibition (10 μM)): 84.1%
inhibition at 10 µM (MSK2 domain1; [1]): 0%
inhibition at 10 µM (MSK2 domain1; read-out: inhibition (10 μM)): -8%
inhibition at 10 µM (SRPK1; [1]): 0%
inhibition at 10 µM (SRPK1; read-out: inhibition (10 μM)): -11.5%
inhibition at 10 µM (MAP2K7; [1]): 0%
inhibition at 10 µM (MAP2K7; read-out: inhibition (10 μM)): 12.2%
inhibition at 10 µM (MAP2K1; [1]): 0%
inhibition at 10 µM (MAP2K1; read-out: inhibition (10 μM)): -26.2%
inhibition at 10 µM (DGKH; [1]): 0%
inhibition at 10 µM (DGKH; read-out: inhibition (10 μM)): 2.7%
inhibition at 10 µM (Erk2; [1]): 0%
inhibition at 10 µM (Erk2; read-out: inhibition (10 μM)): 31.8%
inhibition at 10 µM (GSK3B; [1]): > 90%
inhibition at 10 µM (GSK3B; read-out: inhibition (10 μM)): 90.2%
inhibition at 10 µM (ACK; [1]): 0%
inhibition at 10 µM (ACK; read-out: inhibition (10 μM)): -39%
% inhibition (NEK6, NEK7): 0.0%
inhibition (10 μM) (NEK6, NEK7): −63.6%
% inhibition (JNK1, JNK2, JNK3): 0.0%
inhibition (10 μM) (JNK1, JNK2, JNK3): 29.3%
inhibition at 10 µM (PEK; [1]): 0%
inhibition at 10 µM (PEK; read-out: inhibition (10 μM)): -16.3%
inhibition at 10 µM (GCN2 domain2; [1]): 0%
inhibition at 10 µM (GCN2 domain2; read-out: inhibition (10 μM)): -5.1%
inhibition at 10 µM (PIK3C3; [1]): 0%
inhibition at 10 µM (PIK3C3; read-out: inhibition (10 μM)): -13.2%
inhibition at 10 µM (eEF2K; [1]): 0%
inhibition at 10 µM (eEF2K; read-out: inhibition (10 μM)): 7.7%

Nc1ncc(-c2ccc(NS(=O)(=O)C3CC3)cc2OC2CCCCC2)cc1-c1ccc2c(c1)CCNC2=O [Compound I-65, N-(4-(6-amino-5-(1-oxo-1,2,3,4-tetrahydroisoquinolin-6-yl)pyridin-3-yl)-3-(cyclohexyloxy)phenyl) cyclopropanesulfonamide]
% inhibition (MST1, MST2): >90%
inhibition (10 μM) (MST1, MST2): 98.7%
inhibition at 10 µM (CDK5; [1]): 0%
inhibition at 10 µM (CDK5; read-out: inhibition (10 μM)): 4.9%
inhibition at 10 µM (PIK3CG; [1]): 0%
inhibition at 10 µM (PIK3CG; read-out: inhibition (10 μM)): -64%
% inhibition (PI4KA, PI4KAP2): 0.0%
inhibition (10 μM) (PI4KA, PI4KAP2): −2.9%
inhibition at 10 µM (PFTAIRE1; [1]): 0%
inhibition at 10 µM (PFTAIRE1; read-out: inhibition (10 μM)): -5.1%
inhibition at 10 µM (AKT1; [1]): 0%
inhibition at 10 µM (AKT1; read-out: inhibition (10 μM)): 1.6%
inhibition at 10 µM (MAP2K5; [1]): 0%
inhibition at 10 µM (MAP2K5; read-out: inhibition (10 μM)): 15%
inhibition at 10 µM (PRP4; [1]): 0%
inhibition at 10 µM (PRP4; read-out: inhibition (10 μM)): -19.3%
inhibition at 10 µM (RSK1 domain2; [1]): 0%
inhibition at 10 µM (RSK1 domain2; read-out: inhibition (10 μM)): -0.7%
inhibition at 10 µM (NDR1; [1]): 0%
inhibition at 10 µM (NDR1; read-out: inhibition (10 μM)): -14.5%
inhibition at 10 µM (CaMK2d; [1]): 0%
inhibition at 10 µM (CaMK2d; read-out: inhibition (10 μM)): 4.2%
inhibition at 10 µM (MARK4; [1]): 0%
inhibition at 10 µM (MARK4; read-out: inhibition (10 μM)): -1.1%
inhibition at 10 µM (FRAP; [1]): 35 to 40%
inhibition at 10 µM (FRAP; read-out: inhibition (10 μM)): 47.9%
inhibition at 10 µM (MST3; [1]): 0%
inhibition at 10 µM (MST3; read-out: inhibition (10 μM)): 31.5%
inhibition at 10 µM (MST2; [1]): > 90%
inhibition at 10 µM (MST2; read-out: inhibition (10 μM)): 97.3%
inhibition at 10 µM (CDC2; [1]): 0%
inhibition at 10 µM (CDC2; read-out: inhibition (10 μM)): -0.5%
inhibition at 10 µM (STLK3; [1]): 0%
inhibition at 10 µM (STLK3; read-out: inhibition (10 μM)): 31.4%
% inhibition (MST4, YSK1): 35-40%
inhibition (10 μM) (MST4, YSK1): 46.3%
inhibition at 10 µM (CK1g2; [1]): 50 to 75%
inhibition at 10 µM (CK1g2; read-out: inhibition (10 μM)): 74.5%
inhibition at 10 µM (MSK2 domain1; [1]): 0%
inhibition at 10 µM (MSK2 domain1; read-out: inhibition (10 μM)): -83.6%
inhibition at 10 µM (SRPK1; [1]): 0%
inhibition at 10 µM (SRPK1; read-out: inhibition (10 μM)): -25.4%
inhibition at 10 µM (MAP2K7; [1]): 0%
inhibition at 10 µM (MAP2K7; read-out: inhibition (10 μM)): 3.3%
inhibition at 10 µM (MAP2K1; [1]): 0%
inhibition at 10 µM (MAP2K1; read-out: inhibition (10 μM)): 21.2%
inhibition at 10 µM (DGKH; [1]): 0%
inhibition at 10 µM (DGKH; read-out: inhibition (10 μM)): 7.3%
inhibition at 10 µM (Erk2; [1]): 0%
inhibition at 10 µM (Erk2; read-out: inhibition (10 μM)): -29.6%
inhibition at 10 µM (GSK3B; [1]): > 90%
inhibition at 10 µM (GSK3B; read-out: inhibition (10 μM)): 90%
inhibition at 10 µM (ACK; [1]): 0%
inhibition at 10 µM (ACK; read-out: inhibition (10 μM)): 30.7%
% inhibition (NEK6, NEK7): 0.0%
inhibition (10 μM) (NEK6, NEK7): −78.6%
% inhibition (JNK1, JNK2, JNK3): 0.0%
inhibition (10 μM) (JNK1, JNK2, JNK3): 6.4%
inhibition at 10 µM (PEK; [1]): 0%
inhibition at 10 µM (PEK; read-out: inhibition (10 μM)): -12.9%
inhibition at 10 µM (GCN2 domain2; [1]): 35 to 40%
inhibition at 10 µM (GCN2 domain2; read-out: inhibition (10 μM)): 43.5%
inhibition at 10 µM (PIK3C3; [1]): 0%
inhibition at 10 µM (PIK3C3; read-out: inhibition (10 μM)): -15%
inhibition at 10 µM (eEF2K; [1]): 0%
inhibition at 10 µM (eEF2K; read-out: inhibition (10 μM)): -21.7%
